In US11337975B2, “Pharmaceutical combinations comprising a histone deacetylase inhibitor and a CD38 inhibitor and methods of use thereof” (Acetylon Pharmaceuticals, Inc., priority 2016, dated 2022):

Experiments:
Assay type in all cases: cell-based
[1] = system: H929 multiple myeloma cells; test: Anti-CD38 antibody-dependent cell-mediated cytotoxicity (Calcein-AM) in H929 cells; settings: 0.5 μM-2 μM for 24 hours
Procedure: Multiple myeloma cells were incubated with Calcein-AM (Invitrogen, 2 μg/ml/1 million cells) for 30 min at 37° C. After washing, the cells were used for target cells. Mononuclear cells were obtained from healthy volunteer peripheral blood by Ficoll-Paque density centrifugation and used for effector cells. Both target and effector cells (E/T=15-20) were incubated for 3-4 h and culture supernatant were subjected to measurement of fluorescence using a 490 nm excitation filter and a 520 emission filter. Percent specific lysis was calculated as follows, % specific lysis=[experiment fluorescence−spontaneous fluorescence (no effector)]/[complete lysis (100% killing by detergent)−spontaneous fluorescence (no effector)]×100 Flow Cytometry-Based Ex Vivo ADCC Assay
Cells were stained with Calcein-AM and incubated with peripheral blood mononuclear cells at a ratio of 20:1 for 3 hours.

[2] = system: RPMI-8226 multiple myeloma cells; test: CD38 surface level by FACS, RPMI-8226 cells; settings: various doses, 48 hours, FACS (FIG. 1A)
[3] = system: MM.1S multiple myeloma cells; test: CD38 surface level by FACS, MM.1S cells; settings: various doses, 48 hours, FACS (FIG. 1B)
[4] = system: patient-derived multiple myeloma cells; test: Ex vivo anti-CD38 ADCC in autologous setting, patients' bone marrow aspirates; settings: anti-CD38 antibody 0.5 μg/ml with or without Compound B 0.5 μM, 72 hours (FIG. 3A)
Procedure: After bone marrow aspiration, fresh bone marrow mononuclear cells (MNC) were obtained by ammonium chloride based-lyses of red cells followed by washing in phosphate-buffered saline (PBS). […] The cells were incubated for 72 h at 37° C. in 5% CO2. The viability of primary MM cells in BM MNC was determined by near infrared (n-IR) viability dyes. The surviving CD138+MM cells were enumerated in the presence of Flow-Count Fluorospheres (Beckman Coulter, CA, USA), to determine absolute numbers of viable MM cells. The percentage of daratumumab-mediated ADCC was then calculated using the following formula: % lysis cells=100−[(absolute number of surviving CD138+ cells in the presence of daratumumab/absolute number of surviving CD138+ cells in the presence of control antibody)×100%]. Phenotypic analyses of MNC were performed using a single 5-color combination of monoclonal antibodies containing CD138-PE/CD38-APC/n-IR-viability (BioLegend, San Diego, Calif., USA). Plasma cells in BM MNC were identified by CD138-PE and CD38-APC staining, and expression of CD38 on plasma cells were determined (BD Biosciences, San Jose, Calif., USA). After incubation, cells were washed twice in PBS containing 2% BSA, and then resuspended in PBS for analysis on a Fortessa cytometer (Becton Dickinson, Mountain View, Calif.). […]
The average cytotoxicity (mean±SD) was calculated from 6 patients' samples (see also FIG. 3B).

H929 cells = test: Anti-CD38 ADCC in CFSE-stained H929 cells with PBMCs, flow cytometry; settings: pomalidomide 0.1 μM, Compound B 0.25, 0.5, 1 μM, 72 h, then anti-CD38 antibody 0.5 μg/ml 3 hours (FIG. 6)
Procedure: The cells were then incubated with an anti-CD38 antibody (0.5 μg/ml) for 3 hours. Cytotoxicity was assessed by flow cytometry.

Structure (SMILES) | Percent specific lysis ([1]; PBMC 20:1 for 3 hours (FIG. 2A)) | percent augmentation ([1]; PBMC 20:1 for 3 hours (FIG. 2B)) | percentage of CD38 positive cells [2] | percentage of CD38 positive cells [3] | anti-CD38 antibody dependent cell mediated cytotoxicity [4] | anti-CD38 antibody-induced cytotoxicity (ADCC) (H929 cells)
O=C(CCCCCCNC(=O)c1cnc(N(c2ccccc2)c2ccccc2)nc1)NO [Compound A, 2-(diphenylamino)-N-(7-(hydroxyamino)-7-oxoheptyl)pyrimidine-5-carboxamide] | increased as concentration of Compound A increased | increased as concentration of Compound A increased | increased | increased |  | 
O=C(CCCCCCNC(=O)c1cnc(N(c2ccccc2)c2ccccc2Cl)nc1)NO [Compound B, 2-((2-chlorophenyl)(phenyl)amino)-N-(7-(hydroxyamino)-7-oxoheptyl)pyrimidine-5-carboxamide] |  |  | increased | increased | increased | enhanced
